Assay results reported in the supplement of paper PMC10307832.

What was measured:
Assay in all cases: relative viability (nuclei count vs DMSO), 5 days (fraction); higher = more cells survive
[1] = compound: COc1cc(Nc2ncc3c(n2)-c2ccc(Cl)cc2C(c2c(F)cccc2OC)=NC3)ccc1C(=O)O [Alisertib] + C[C@]1(O)C[C@@H](c2nc(-c3ccc4ccc(-c5ccccc5)nc4c3)c3c(N)nccn32)C1 [Linsitinib] (partner 1 µM)
Outline: (§1)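 A single step with final 0.05% Triton X-100, 1% formaldehyde and 1 ug/ml Hoechst fixed the cells and stained nuclei 5 days after treatment. Lung cancer cell lines in 1536-well plates had been treated by pin tool the day after seeding with one drug alone or a fixed anchor-drug dose plus five library-drug doses (not always all listed) in √10 steps, and nuclei were counted on 4× images. Relative viability is the ratio of nuclei in treated wells to nuclei in vehicle wells, taken as the median of duplicate plates.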

[2] = compound: COc1cc(Nc2ncc3c(n2)-c2ccc(Cl)cc2C(c2c(F)cccc2OC)=NC3)ccc1C(=O)O [Alisertib] + CS(=O)(=O)N1CCN(Cc2cc3nc(-c4cccc5[nH]ncc45)nc(N4CCOCC4)c3s2)CC1 [Pictilisib] (partner 1 µM)
Outline: as §1

[3] = compound: COc1cc(Nc2ncc3c(n2)-c2ccc(Cl)cc2C(c2c(F)cccc2OC)=NC3)ccc1C(=O)O [Alisertib] + Cc1nc(NC(=O)N2CCC[C@H]2C(N)=O)sc1-c1ccnc(C(C)(C)C(F)(F)F)c1 [Alpelisib] (partner 2 µM)
Outline: as §1

[4] = compound: COc1cc(Nc2ncc3c(n2)-c2ccc(Cl)cc2C(c2c(F)cccc2OC)=NC3)ccc1C(=O)O [Alisertib] + Nc1ncn([C@H]2C[C@H](O)[C@@H](CO)O2)c(=O)n1 [Decitabine] (partner 2 µM)
Outline: as §1

| Cell Line | relative viability ([1]; first compound 0.005 µM) | relative viability ([1]; first compound 0.01581 µM) | relative viability ([1]; first compound 0.05 µM) | relative viability ([1]; first compound 0.1581 µM) | relative viability ([1]; first compound 0.5 µM) | relative viability ([2]; first compound 0.005 µM) | relative viability ([2]; first compound 0.01581 µM) | relative viability ([2]; first compound 0.05 µM) | relative viability ([2]; first compound 0.1581 µM) | relative viability ([2]; first compound 0.5 µM) | relative viability ([3]; first compound 0.005 µM) | relative viability ([3]; first compound 0.01581 µM) | relative viability ([3]; first compound 0.05 µM) | relative viability ([3]; first compound 0.1581 µM) | relative viability ([3]; first compound 0.5 µM) | relative viability ([4]; first compound 0.005 µM) | relative viability ([4]; first compound 0.01581 µM) | relative viability ([4]; first compound 0.05 µM) | relative viability ([4]; first compound 0.1581 µM) | relative viability ([4]; first compound 0.5 µM) |
| --- | --- | --- | --- | --- | --- | --- | --- | --- | --- | --- | --- | --- | --- | --- | --- | --- | --- | --- | --- | --- |
| ABC-1 | 0.661 | 0.707 | 0.584 | 0.416 | 0.204 | 0.674 | 0.606 | 0.578 | 0.277 | 0.232 | 0.979 | 0.724 | 0.929 | 0.475 | 0.223 | 1.12 | 0.915 | 0.869 | 0.598 | 0.33 |
| COR-L23 | 0.794 | 0.799 | 0.401 | 0.178 | 0.121 | 0.662 | 0.632 | 0.248 | 0.137 | 0.0917 | 0.777 | 0.697 | 0.369 | 0.155 | 0.0816 | 0.422 | 0.419 | 0.307 | 0.146 | 0.118 |
| NCI-H727 | 0.415 | 0.366 | 0.216 | 0.242 | 0.194 | 0.273 | 0.333 | 0.236 | 0.236 | 0.225 | 0.663 | 0.515 | 0.434 | 0.302 | 0.244 | 0.843 | 0.892 | 0.81 | 0.617 | 0.537 |
| ChaGo-K-1 | – | – | – | – | – | 0.632 | 0.457 | 0.267 | 0.283 | 0.184 | – | – | – | – | – | 0.518 | 0.423 | 0.222 | 0.197 | 0.19 |
| NCI-H1650 | – | – | – | – | – | 0.527 | 0.461 | 0.328 | 0.151 | 0.166 | – | – | – | – | – | 0.336 | 0.326 | 0.2 | 0.162 | 0.189 |
| EBC-1 | 0.678 | 0.731 | 0.211 | 0.179 | 0.147 | 0.394 | 0.282 | 0.112 | 0.158 | 0.121 | 0.578 | 0.597 | 0.272 | 0.225 | 0.153 | – | – | – | – | – |
| NCI-H1703 | 0.65 | 0.626 | 0.563 | 0.177 | 0.164 | 0.246 | 0.22 | 0.182 | 0.163 | 0.155 | 0.298 | 0.311 | 0.211 | 0.157 | 0.18 | – | – | – | – | – |
| CAL-12T | 0.741 | 0.603 | 0.187 | 0.157 | 0.162 | 0.322 | 0.294 | 0.134 | 0.246 | 0.218 | 1.19 | 0.382 | 0.217 | 0.249 | 0.183 | – | – | – | – | – |
| NCI-H1563 | 1.04 | 1.01 | 1.01 | 0.935 | 0.744 | 0.646 | 0.608 | 0.606 | 0.717 | 0.296 | 0.967 | 0.848 | 0.9 | 0.824 | 0.719 | – | – | – | – | – |
| NCI-H2170 | – | – | – | – | – | 0.276 | 0.303 | 0.282 | 0.19 | 0.192 | 0.732 | 0.749 | 0.424 | 0.34 | 0.199 | 0.452 | 0.448 | 0.3 | 0.272 | 0.147 |
